Experiment: Human HepG2 cell viability assay in 384 well format
Format: toxicity, cell-based
Parameters: dose 125 nL, time 70.5 hour; concentration not given beside the values
Conditions: HepG2 cells, read-out: Inhibition

Compound `Fc1ccc(Sc2ccccc2CNC2=NCCN2)cc1` has a cytotoxicity at 70.5 h of -5.29%.
Compound `O=c1ncn(-c2ccccc2F)c2ncccc12` has a cytotoxicity at 70.5 h of -5.32%.
Work on `Fc1ccccc1Sc1ccccc1CNC1=NCCN1` yielded a cytotoxicity at 70.5 h of -0.773%.
Work on `CCOC(=O)c1cnn(-c2cc(Oc3cccc(C)c3)ncn2)c1N` yielded a cytotoxicity at 70.5 h of -0.773%.
Compound `NC(=O)Cn1cnc2nc3n(c2c1=O)CCC3` has a cytotoxicity at 70.5 h of 16.5%.
For `CCC1CCc2c(c3ccccc3[nH]c2=O)O1` (stereo not given), the cytotoxicity at 70.5 h was 24.6%.
`CC1CCc2c(c3ccccc3[nH]c2=O)O1` (stereo not given) gave a cytotoxicity at 70.5 h of -6.86%.
In the case of `CCn1cc(C(=O)Nc2ccccc2C(=O)OC)cn1`, the cytotoxicity at 70.5 h is reported as 13.1%.
Compound `Cn1c(=O)c2c(c3ccccc31)OC(C)(C)CC2` has a cytotoxicity at 70.5 h of -9.34%.
In the case of `Cn1c2c(c(=O)c3ccccc31)CCC(C)(C)O2`, the cytotoxicity at 70.5 h is reported as -9.34%.
For `O=C(CSC1CCc2ccccc2NC1=O)NCCc1ccc(O)cc1` (stereo not given), the cytotoxicity at 70.5 h was -2.27%.
Work on `CC(C)n1[nH]c(=O)c2c1NC(=O)CC2c1ccc(S(C)(=O)=O)cc1` (stereo not given) yielded a cytotoxicity at 70.5 h of -17.1%.
Compound `O=C(CSC1CCc2ccccc2NC1=O)NCc1ccccc1` (stereo not given) has a cytotoxicity at 70.5 h of 6.38%.
Compound `NC(=O)c1ccc(NC(=O)Cn2cc(-c3ccccc3)ncc2=O)cc1` has a cytotoxicity at 70.5 h of -17.2%.
Work on `Cn1cc(NC(=O)Cn2cc(-c3ccccc3)ncc2=O)cn1` yielded a cytotoxicity at 70.5 h of 19.6%.
With `Cc1c(C2CC(=O)Nc3c2cnn3C(C)(C)C)cnn1C` (stereo not given) the cytotoxicity at 70.5 h was -11.8%.
`Cc1cnc(NC(=O)CSC2CCc3ccccc3NC2=O)s1` (stereo not given) gave a cytotoxicity at 70.5 h of 1.54%.
For `Cc1nc(-c2ccccc2F)sc1C(=O)N1CCC(=O)CC1`, the cytotoxicity at 70.5 h was -8.75%.
For `O=C1CC(c2ccc(O)cc2)c2sc(C(=O)O)c(-c3ccccc3)c2N1` (stereo not given), the cytotoxicity at 70.5 h was -16.3%.
`CC(=O)c1cccc(NC(=O)Cn2cc(-c3ccccc3)ncc2=O)c1` showed a cytotoxicity at 70.5 h of -6.47%.
In the case of `O=C(Cn1cc(-c2ccccc2)ncc1=O)NC1CCCCC1`, the cytotoxicity at 70.5 h is reported as 5.64%.
For `Cn1c(=O)[nH]c(=O)c2c1nc1n2CC(c2ccc(Cl)cc2)O1` (stereo not given), the cytotoxicity at 70.5 h was 43%.
Compound `Cc1cc(O)n(-c2ccccc2Cl)c(=O)c1C#N` has a cytotoxicity at 70.5 h of -0.226%.
Work on `O=C(Nc1ccc(I)cc1C(=O)NCCN1CCOCC1)c1cccs1` yielded a cytotoxicity at 70.5 h of 11.1%.
`CC(=O)c1c(C)nn(S(=O)(=O)c2ccc(C)c(C)c2)c1C` gave a cytotoxicity at 70.5 h of -0.468%.
With `CC(=O)c1c(C)nn(S(=O)(=O)c2ccc(Cl)cc2)c1C` the cytotoxicity at 70.5 h was 3.92%.
For `CCOC1Sc2nnc(C)n2N=C1c1ccc(Br)cc1` (stereo not given), the cytotoxicity at 70.5 h was -8.58%.
With `CC(=O)c1c(O)n(C)c2ccc(C)cc12` the cytotoxicity at 70.5 h was 1.11%.
`O=C(CCn1ccnc1)N1CC[C@H](Oc2cccc(F)c2)[C@@H](O)CC1` gave a cytotoxicity at 70.5 h of 28.5%.
For `COc1cccc(O[C@H]2CCN(c3nc(C)cc(C)n3)CC[C@@H]2O)c1`, the cytotoxicity at 70.5 h was 20.4%.
For `O=C1CN([C@@H]2CC[C@@H](NS(=O)(=O)c3ccccc3F)[C@H]2O)CCN1`, the cytotoxicity at 70.5 h was 25.1%.
`Cn1ccc(C(=O)N2CCCC2c2cc[nH]n2)n1` (stereo not given) gave a cytotoxicity at 70.5 h of 25.1%.
Compound `Fc1ccccc1CN1CCC[C@H](Cn2nnc(-c3cccs3)n2)C1` has a cytotoxicity at 70.5 h of -0.999%.
`COc1ccccc1NC(=O)c1cnc(C2CCN(C(C)=O)C2)nc1C` (stereo not given) gave a cytotoxicity at 70.5 h of -1.01%.
`O=C1CN([C@@H]2CC[C@@H](NS(=O)(=O)c3ccc(F)cc3)[C@H]2O)CCN1` gave a cytotoxicity at 70.5 h of 4.31%.
For `CC(C)n1nccc1CN1Cc2nccn2CC1c1ccccc1` (stereo not given), the cytotoxicity at 70.5 h was -7.71%.
With `CC(=O)N1CCC(Cc2ccc(-c3ccnn3C)nc2)CC1` the cytotoxicity at 70.5 h was -7.13%.
In the case of `CC(=O)N[C@@H]1CN(C(=O)c2cccc(C(F)(F)F)c2)C[C@H]1O`, the cytotoxicity at 70.5 h is reported as -4.74%.
With `CC1(c2ncc(CN3CCOCC3)cn2)CCCCO1` (stereo not given) the cytotoxicity at 70.5 h was -1.05%.
Compound `CC(C)c1cc(C(=O)N[C@@H]2CC[C@@H](Oc3ccccc3)[C@@H]2O)on1` has a cytotoxicity at 70.5 h of -3.21%.
For `Cc1ccccc1S(=O)(=O)N[C@@H]1CC[C@@H](N2CCNC(=O)C2)[C@@H]1O`, the cytotoxicity at 70.5 h was -4.42%.
`O=C(c1cnccn1)N1CCCC(C2=Nc3ccccc3S(=O)(=O)N2)C1` (stereo not given) gave a cytotoxicity at 70.5 h of -6.36%.
In the case of `Cc1ccc(-c2noc(C3CCN3C(=O)c3ccn(C)n3)n2)s1` (stereo not given), the cytotoxicity at 70.5 h is reported as 1.02%.
With `CCC(CO)NCc1ccc(-c2ccc(Cl)cc2)o1` (stereo not given) the cytotoxicity at 70.5 h was 7.49%.
Work on `c1nc(N2CCOCC2)sc1-c1cncn1CCCN1CCCCC1` yielded a cytotoxicity at 70.5 h of -4.2%.

From ChEMBL document CHEMBL3507680, “University of Dundee, Gates Library screen for HepG2 cell viability”
